# Results published in patent US7338974B2, “Macrocyclic diaminopropanes as beta-secretase inhibitors” (Bristol-Myers Squibb Company, priority 2005, dated 2008).
# Where two headings read alike, the source gives them in different places.
# Key:
# [1] = rcm bond, 15-membered ring
# BACE1 enzyme = biological target: T1, BACE1 enzyme (Homo sapiens, UniProt P56817); assay: Radioligand displacement assay with a radiolabeled BACE inhibitor on HEK293-9B.A1 cell homogenate; format: binding; conditions: displacement of 1 nM tritiated radioligand, HEK293-9B.A1 homogenate, pH 5.0, 1.5 hr at 25° C.; read-out: Activity Rating (Activity based on IC50 values)
# T1 construct: The HEK293-9B.A1 cell line, which overexpresses the BACE1 enzyme, was derived from HEK293 cells; endogenous in cells; washed membrane pellet / cell homogenate
# T1 sequence (P56817 46-501): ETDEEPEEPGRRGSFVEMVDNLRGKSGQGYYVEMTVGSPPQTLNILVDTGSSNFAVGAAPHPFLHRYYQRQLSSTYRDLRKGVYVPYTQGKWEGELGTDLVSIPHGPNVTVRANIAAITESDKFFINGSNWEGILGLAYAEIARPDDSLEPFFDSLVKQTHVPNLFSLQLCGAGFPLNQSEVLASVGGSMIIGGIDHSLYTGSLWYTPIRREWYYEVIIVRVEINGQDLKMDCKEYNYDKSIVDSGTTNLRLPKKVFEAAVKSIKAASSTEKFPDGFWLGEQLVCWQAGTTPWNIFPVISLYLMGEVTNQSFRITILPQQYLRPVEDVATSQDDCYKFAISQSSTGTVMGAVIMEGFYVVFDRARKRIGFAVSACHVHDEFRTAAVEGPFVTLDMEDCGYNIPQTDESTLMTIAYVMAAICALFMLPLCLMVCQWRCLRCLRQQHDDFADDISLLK
# Description: There are a number of methods by which inhibitors of the BACE enzyme can be identified experimentally. The enzyme can be obtained from membrane samples from natural tissues or cultured cells or can be expressed recombinantly in a host cell by well known methods of molecular biology. The whole enzyme or a portion thereof can be expressed, for example, in bacterial, insect or mammalian cells to obtain a catalytically active enzyme species. The enzymatic activity and/or ligand binding capability of the enzyme can be assessed within these membrane samples, or the enzyme can be purified to varying extents. As an illustrative example, the nucleic acid sequence encoding the pro and catalytic domains of human BACE can be appended on the 5′ end with an untranslated and signal sequence from the gene for acetylcholinesterase, and on the 3′ end with a sequence encoding a poly-histidine tag. This cDNA can then be expressed in Drosophila melanogaster S2 cells in which the signal and pro sequences of the transcribed/translated protein are removed by cellular proteases and the catalytic domain, appended by a C-terminal poly-histidine tag, is secreted out into the cellular medium. The enzyme can then be purified from the culture medium by nickel affinity chromatography by methods well known to those trained in the art [Mallender, W. et al., “Characterization of recombinant, soluble beta-secretase from an insect cell expression system.” Mol. Pharmacol. 2001, 59: 619-626]. Similar strategies for expressing and purifying various forms of BACE in bacterial, mammalian and other cell types would be known to one skilled in the art. A preferred method for determining the potency of a test compound in binding to the BACE enzyme is by moitoring the displacement of a suitable radioligand.
# Radioligand displacement assays with a radiolabeled BACE inhibitor (WO 2004 013098, compound 3, where the methoxy group is substituted for C(3H)3) were carried out using standard methods (Keen, M. (1999) in Receptor Binding Techniques (Walker, J. M. ed) p. 106 Humana Press, Totowa, N.J.). The HEK293-9B.A1 cell line, which overexpresses the BACE1 enzyme, was derived from HEK293 cells (Simmons, N. L. (1990) A cultured human renal epithelioid cell line responsive to vasoactive intestinal peptide. Exp. Physiol. 75:309-19.) by RAGE™ (Harrington, J. J. et al. (2001) Creation of genome-wide protein expression libraries using random activation of gene expression. Nat. Biotechnol. 19:440-5.; U.S. Pat. Nos. 6,410,266 and 6,361,972). T225 flask cultures of HEK293-9B.A1 were grown to 80% confluency in DMEM supplemented with 2 mM L-glutamine, 10 μg/ml penicillin, 10 μg/ml streptomycin, 3 μg/ml puromycin, 100 nM methotrexate, and 10% fetal bovine serum (Invitrogen, Carlsbad, Calif.), harvested, and resuspended at 2×10^8 cells per 10 ml of lysis buffer consisting of 50 mM HEPES pH 7.0 containing a protease inhibitor cocktail of AEBSF 104 μM, aprotinin 80 nM, leupeptin 2 μM, bestatin 4 μM, pepstatin A 1.5 μM, and E-64 1.4 μM (0.1% of protease inhibitor cocktail P8340, Sigma-Aldrich, St. Louis, Mo.) at 4° C. The resuspended cells were homogenized using a Polytron (Brinkman, Westbury, N.Y.) at setting 6 for 10 sec., then centrifuged at 48,000×g for 10 min. The resulting pellet was washed by repeating the resuspension, homogenization and centrifugation steps. The final pellet was resuspended in buffer at 4° C. to yield a total protein concentration of 5 mg/ml, then aliquots were frozen in liquid nitrogen for further storage at −70° C. Immediately before carrying out a binding assay, an aliquot of cell homogenate was thawed and diluted to a concentration of 100 μg/ml in assay buffer consisting of 50 mM HEPES pH 5.0 and 0.1% CHAPSO. […]
SMILES,IC50 (BACE1 enzyme),also measured
"CCC(C)[C@@]1(NC(C)=O)CCN([C@H]2CC=CCO[C@@H]3C[C@H](NC[C@@H](O)[C@H](Cc4ccccc4)NC2=O)c2cc(OC)ccc23)C1=O (stereo partly drawn) [Example 6, N—[(S)-1-((1S,4R,5S,8S,14R)-5-Benzyl-4-hydroxy-18-methoxy-7-oxo-13-oxa-2,6-diaza-tricyclo[12.6.1.0^15,20]henicosa-10,15(20),16,18-tetraen-8-yl)-3-sec-butyl-2-oxo-pyrrolidin-3-yl]-acetamide]",< 10 nM,"ring closure, yield after HPLC ([1]; from C=CCO[C@@H]1C[C@H](NC[C@@H](O)[C@H](Cc2ccccc2)NC(=O)[C@H](CC=C)N2CC[C@](NC(C)=O)(C(C)CC)C2=O)c2cc(OC)ccc21, Hoveyda-Grubbs II (10 mol%), dichloroethane, 50.0 °C, 16.0 h): 50%"
"CCCC[C@H]1CCN([C@H]2CCCCO[C@@H]3C[C@H](NC[C@@H](O)[C@H](Cc4cc(F)cc(F)c4)NC2=O)c2cc(OC)ccc23)C1=O [Example 5, (1S,4R,5S,8S,14R)-8-((S)-3-Butyl-2-oxo-pyrrolidin-1-yl)-5-(3,5-difluoro-benzyl)-4-hydroxy-18-methoxy-13-oxa-2,6-diaza-tricyclo[12.6.1.0^15,20]henicosa-15(20),16,18-trien-7-one]",< 10 nM,–
"COc1ccc2c(c1)C1CC2OCC=CCC(N2CCCC2=O)C(=O)N[C@@H](Cc2ccccc2)[C@H](O)CN1 (stereo partly drawn) [Example 1, (4R,5S)-5-Benzyl-4-hydroxy-18-methoxy-8-(2-oxo-pyrrolidin-1-yl)-13-oxa-2,6-diaza-tricyclo[12.6.1.0^15,20]henicosa-10,15(20),16,18-tetraen-7-one]",> 1000 nM,"ring closure, yield after HPLC ([1]; from C=CCOC1CC(NC[C@@H](O)[C@H](Cc2ccccc2)NC(=O)C(CC=C)N2CCCC2=O)c2cc(OC)ccc21, Grubbs II (20 mol%)/TsOH.H2O, CH2Cl2, 8.75 mM, 25.0 °C, 18.0 h): 97%"
"COc1ccc2c(c1)C1CC2OCCCCC(N2CCCC2=O)C(=O)N[C@@H](Cc2ccccc2)[C@H](O)CN1 (stereo partly drawn) [Example 2, (4R,5S)-5-Benzyl-4-hydroxy-18-methoxy-8-(2-oxo-pyrrolidin-1-yl)-13-oxa-2,6-diaza-tricyclo[12.6.1.0^15,20]henicosa-15(20),16,18-trien-7-one]",> 1000 nM,–
"CCCC[C@H]1CCN([C@H]2CC=CCO[C@@H]3C[C@H](NC[C@@H](O)[C@H](Cc4cc(F)cc(F)c4)NC2=O)c2cc(OC)ccc23)C1=O [Example 4, (1S,4R,5S,8S,14R)-8-((S)-3-Butyl-2-oxo-pyrrolidin-1-yl)-5-(3,5-difluoro-benzyl)-4-hydroxy-18-methoxy-13-oxa-2,6-diaza-tricyclo[12.6.1.0^15,20]henicosa-10,15(20),16,18-tetraen-7-one]",< 10 nM,"ring closure, yield after HPLC ([1]; from C=CCO[C@@H]1C[C@H](NC[C@@H](O)[C@H](Cc2cc(F)cc(F)c2)NC(=O)[C@H](CC=C)N2CC[C@H](CCCC)C2=O)c2cc(OC)ccc21, Hoveyda-Grubbs II (10 mol%), CH2Cl2, 25.0 °C, 72.0 h): 46%"
"COc1ccc2c(c1)[C@@H]1C[C@H]2OCC=CC[C@H](N2CCCC2=O)C(=O)N[C@@H](Cc2cc(F)cc(F)c2)[C@H](O)CN1 [Example 3, (1S,4R,5S,8S,14R)-5-(3,5-Difluoro-benzyl)-4-hydroxy-18-methoxy-8-(2-oxo-pyrrolidin-1-yl)-13-oxa-2,6-diaza-tricyclo[12.6.1.0^15,20]henicosa-10,15(20),16,18-tetraen-7-one]",10 to 1000 nM,"ring closure, yield after HPLC ([1]; from C=CCO[C@@H]1C[C@H](NC[C@@H](O)[C@H](Cc2cc(F)cc(F)c2)NC(=O)[C@H](CC=C)N2CCCC2=O)c2cc(OC)ccc21, Hoveyda-Grubbs II (20 mol%), CH2Cl2, 7.15 mM, 25.0 °C, 16.0 h): 70%"
"COc1ccc2c(c1)[C@@H]1C[C@H]2OCC=CC[C@H](N2CC[C@H](CC(C)C)C2=O)C(=O)N[C@@H](Cc2ccccc2)[C@H](O)CN1 [Example 7, (1S,4R,5S,8S,14R)-5-Benzyl-4-hydroxy-8-((S)-3-isobutyl-2-oxo-pyrrolidin-1-yl)-18-methoxy-13-oxa-2,6-diaza-tricyclo[12.6.1.0^15,20]henicosa-10,15(20),16,18-tetraen-7-one]",< 10 nM,"ring closure, yield after HPLC ([1]; from C=CCO[C@@H]1C[C@H](NC[C@@H](O)[C@H](Cc2ccccc2)NC(=O)[C@H](CC=C)N2CC[C@H](CC(C)C)C2=O)c2cc(OC)ccc21, Hoveyda-Grubbs II (10 mol%), CH2Cl2, 8.9 mM, 25.0 °C, 16.0 h): 75%"
